From ChEMBL document CHEMBL1201862, “PubChem BioAssay data set” (2004)
Calls of active or inactive are those of the source.

How the values were obtained:
[1] = DRD fibroblast viability loss – cell-based, non-viral oncogenic, luminescence, dose response (AID 1934); format: functional; details: Homo sapiens
BJ [2] = assay: BJ-TERT-LT-ST fibroblast viability loss – cell-based, RAS-independent, luminescence, dose response (AID 1935); format: functional; details: Homo sapiens;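 note: BJ fibroblasts immortalized with TERT plus LT and ST oncogenes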
BJ [3] = assay: cells; format: functional, cell-based; details: Homo sapiens
BJ [4] = assay: BJ-TERT fibroblast viability loss – cell-based, RAS-independent, luminescence, dose response (AID 1933); format: functional; details: Homo sapiens
[5] = intracellular Trypanosoma cruzi inhibitors in host cells – cell-based, plate reader, cherry-pick samples, set 3, dose response (AID 651818); format: functional;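 note: compounds incubated with infected cells for about four days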
[6] = biological target: T1, Polyadenylate-binding protein 1 (Homo sapiens, UniProt P11940); assay: MLLE domain peptide-binding blockers, IC50 – biochemical, fluorescence polarization, FITC-PAM2 peptide, dose response (AID 602259); format: functional; details: read-out: IC50_Mean
T1 sequence (P11940 whole entry, the tested form may be a part): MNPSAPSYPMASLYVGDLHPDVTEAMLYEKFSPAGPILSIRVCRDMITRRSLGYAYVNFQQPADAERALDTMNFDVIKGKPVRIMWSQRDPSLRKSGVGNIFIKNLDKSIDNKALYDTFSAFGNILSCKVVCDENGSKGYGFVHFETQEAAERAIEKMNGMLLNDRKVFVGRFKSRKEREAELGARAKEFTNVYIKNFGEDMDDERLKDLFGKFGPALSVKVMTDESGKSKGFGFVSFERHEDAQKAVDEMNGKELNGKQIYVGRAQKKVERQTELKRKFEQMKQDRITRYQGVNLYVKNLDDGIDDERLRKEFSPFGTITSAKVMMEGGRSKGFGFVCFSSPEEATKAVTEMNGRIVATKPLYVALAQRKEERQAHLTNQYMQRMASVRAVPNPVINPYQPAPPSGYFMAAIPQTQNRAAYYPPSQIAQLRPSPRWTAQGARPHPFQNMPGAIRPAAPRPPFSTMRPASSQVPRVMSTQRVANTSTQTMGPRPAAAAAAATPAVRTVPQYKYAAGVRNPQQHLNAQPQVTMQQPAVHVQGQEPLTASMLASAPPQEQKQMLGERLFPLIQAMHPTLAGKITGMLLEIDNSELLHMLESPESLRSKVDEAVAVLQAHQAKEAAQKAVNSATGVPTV

[7] = biological target: T1, Polyadenylate-binding protein 1; assay: MLLE binding blockers, Cy5 peptide tracer – biochemical, fluorescence polarization, Cy5-PAM2 peptide, secondary, miRNA deadenylation inhibitor project, dose response (AID 602260); format: functional; details: read-out: IC50_Mean
[8] = biological target: T2, Corticotropin-releasing factor receptor 2/Corticotropin-releasing factor-binding protein (Homo sapiens, UniProt P24387+Q13324); assay: Dose Response confirmation of uHTS hits for small molecule antagonists of the CRF-binding protein and CRF-R2 receptor complex.; format: functional; details: read-out: IC50_Mean
T2 sequence (Q13324 whole entry): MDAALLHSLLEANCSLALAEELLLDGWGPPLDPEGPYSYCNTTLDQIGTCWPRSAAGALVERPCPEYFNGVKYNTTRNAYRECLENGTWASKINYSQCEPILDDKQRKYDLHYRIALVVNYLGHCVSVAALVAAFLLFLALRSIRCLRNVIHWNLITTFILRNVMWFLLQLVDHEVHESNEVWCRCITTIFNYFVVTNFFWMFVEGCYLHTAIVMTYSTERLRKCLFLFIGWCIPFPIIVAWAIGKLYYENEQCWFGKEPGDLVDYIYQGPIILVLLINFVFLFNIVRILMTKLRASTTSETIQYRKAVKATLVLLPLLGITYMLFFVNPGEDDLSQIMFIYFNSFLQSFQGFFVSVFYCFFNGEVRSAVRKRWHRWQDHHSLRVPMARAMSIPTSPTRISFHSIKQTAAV
T2 sequence (P24387 whole entry): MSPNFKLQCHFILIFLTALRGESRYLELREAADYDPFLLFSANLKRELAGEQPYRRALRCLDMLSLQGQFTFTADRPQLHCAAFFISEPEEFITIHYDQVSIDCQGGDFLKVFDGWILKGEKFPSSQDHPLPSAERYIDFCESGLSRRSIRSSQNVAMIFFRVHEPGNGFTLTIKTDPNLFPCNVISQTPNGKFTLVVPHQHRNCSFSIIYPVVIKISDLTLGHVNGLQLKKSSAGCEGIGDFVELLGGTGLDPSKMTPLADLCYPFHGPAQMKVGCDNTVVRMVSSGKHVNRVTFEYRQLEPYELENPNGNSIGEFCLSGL

[9] = biological target: T2, Corticotropin-releasing factor receptor 2/Corticotropin-releasing factor-binding protein; assay: activators of CRF receptor 2 with binding protein – uHTS hits, confirmation (AID 602473); format: functional; details: read-out: EC50_Mean
Protein RecA = biological target: T3, Protein RecA (Mycobacterium tuberculosis, UniProt P9WHJ3); assay: Fluorescence Cell-Free Homogeneous Dose Retest to Identify Inhibitors of RecA-Intein Splicing Activity. [Related pubchem assays (depositor defined):AID2097, AID2223, AID489010, AID492950]; format: functional
T3 sequence (P9WHJ3 whole entry): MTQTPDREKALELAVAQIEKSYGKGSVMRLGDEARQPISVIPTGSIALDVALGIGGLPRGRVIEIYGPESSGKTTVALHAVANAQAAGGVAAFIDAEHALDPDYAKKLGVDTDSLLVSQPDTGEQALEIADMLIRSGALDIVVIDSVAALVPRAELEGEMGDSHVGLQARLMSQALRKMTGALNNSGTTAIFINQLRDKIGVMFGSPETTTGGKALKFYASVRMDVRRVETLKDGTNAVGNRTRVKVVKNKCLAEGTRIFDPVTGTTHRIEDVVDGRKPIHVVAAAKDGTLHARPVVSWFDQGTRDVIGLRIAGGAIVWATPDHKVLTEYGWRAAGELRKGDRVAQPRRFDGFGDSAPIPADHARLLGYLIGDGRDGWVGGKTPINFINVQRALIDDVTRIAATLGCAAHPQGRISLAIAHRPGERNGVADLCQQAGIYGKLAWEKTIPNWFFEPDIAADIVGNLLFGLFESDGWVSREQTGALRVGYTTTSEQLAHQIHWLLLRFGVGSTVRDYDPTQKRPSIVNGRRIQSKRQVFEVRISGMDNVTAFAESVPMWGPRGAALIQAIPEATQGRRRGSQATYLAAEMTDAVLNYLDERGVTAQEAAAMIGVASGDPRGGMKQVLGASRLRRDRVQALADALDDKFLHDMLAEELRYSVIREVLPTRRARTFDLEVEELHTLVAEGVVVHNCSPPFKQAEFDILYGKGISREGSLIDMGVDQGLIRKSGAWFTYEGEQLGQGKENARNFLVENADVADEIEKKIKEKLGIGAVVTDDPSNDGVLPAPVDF

Genome polyprotein = Genome polyprotein (dengue virus type 2, UniProt P29990); assay: flavivirus cap methylation enzyme inhibition – biochemical, confirmation dose response, primary screen (AID 588689); format: functional
Sequence of Genome polyprotein (P29990 2492-3391 limits assumed): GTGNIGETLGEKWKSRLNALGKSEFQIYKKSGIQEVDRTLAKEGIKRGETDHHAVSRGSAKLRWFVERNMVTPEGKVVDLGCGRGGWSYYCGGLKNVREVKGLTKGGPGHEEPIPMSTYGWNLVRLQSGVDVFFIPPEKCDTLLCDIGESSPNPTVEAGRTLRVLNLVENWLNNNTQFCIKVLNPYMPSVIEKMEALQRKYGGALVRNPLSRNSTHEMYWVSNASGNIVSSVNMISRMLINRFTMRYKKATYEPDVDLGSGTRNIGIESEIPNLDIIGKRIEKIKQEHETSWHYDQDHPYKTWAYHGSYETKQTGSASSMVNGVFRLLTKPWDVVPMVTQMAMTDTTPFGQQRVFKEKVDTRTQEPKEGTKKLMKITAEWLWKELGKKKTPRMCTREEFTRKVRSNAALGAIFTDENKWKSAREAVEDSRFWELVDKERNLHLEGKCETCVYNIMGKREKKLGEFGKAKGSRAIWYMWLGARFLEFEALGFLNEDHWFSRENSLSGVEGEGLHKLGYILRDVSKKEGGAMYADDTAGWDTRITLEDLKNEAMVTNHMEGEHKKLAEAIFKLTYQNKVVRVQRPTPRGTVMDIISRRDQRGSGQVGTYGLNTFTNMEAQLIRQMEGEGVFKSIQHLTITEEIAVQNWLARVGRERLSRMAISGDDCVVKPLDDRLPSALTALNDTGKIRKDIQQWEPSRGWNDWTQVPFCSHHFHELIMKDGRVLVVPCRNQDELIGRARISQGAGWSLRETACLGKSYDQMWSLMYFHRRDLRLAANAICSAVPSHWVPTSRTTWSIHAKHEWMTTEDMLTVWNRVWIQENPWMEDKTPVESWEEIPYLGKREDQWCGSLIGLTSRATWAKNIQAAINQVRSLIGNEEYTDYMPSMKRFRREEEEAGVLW

[10] = biological target: T4, Replicative DNA helicase DnaB (Mycobacterium tuberculosis, UniProt P9WMR3); assay: DnaB intein splicing inhibitors, dose response, biochemical, cell-free fluorescence (AID 449749); format: functional
T4 sequence (P9WMR3 whole entry): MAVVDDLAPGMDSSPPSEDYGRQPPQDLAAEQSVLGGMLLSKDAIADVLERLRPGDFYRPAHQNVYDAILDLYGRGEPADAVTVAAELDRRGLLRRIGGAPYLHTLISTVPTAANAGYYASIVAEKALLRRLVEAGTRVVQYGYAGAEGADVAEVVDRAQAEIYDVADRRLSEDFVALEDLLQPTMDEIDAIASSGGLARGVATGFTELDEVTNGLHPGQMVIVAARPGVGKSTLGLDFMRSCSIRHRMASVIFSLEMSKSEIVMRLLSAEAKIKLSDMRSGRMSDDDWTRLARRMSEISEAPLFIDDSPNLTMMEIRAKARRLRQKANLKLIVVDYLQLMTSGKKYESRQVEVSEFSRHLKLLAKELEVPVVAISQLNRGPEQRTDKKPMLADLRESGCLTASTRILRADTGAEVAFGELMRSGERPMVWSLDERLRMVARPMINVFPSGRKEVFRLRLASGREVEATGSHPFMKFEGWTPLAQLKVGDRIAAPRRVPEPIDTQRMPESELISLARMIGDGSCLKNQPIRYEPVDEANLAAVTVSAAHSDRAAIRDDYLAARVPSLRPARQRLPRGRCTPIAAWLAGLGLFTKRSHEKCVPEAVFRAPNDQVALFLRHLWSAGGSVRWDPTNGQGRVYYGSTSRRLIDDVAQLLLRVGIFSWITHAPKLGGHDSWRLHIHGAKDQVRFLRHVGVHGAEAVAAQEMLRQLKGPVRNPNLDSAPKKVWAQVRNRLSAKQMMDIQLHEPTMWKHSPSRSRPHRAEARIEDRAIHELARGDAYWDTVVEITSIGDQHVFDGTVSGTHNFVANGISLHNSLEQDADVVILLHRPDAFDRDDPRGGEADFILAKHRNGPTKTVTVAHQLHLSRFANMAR

[11] = microbe, parasite or virus in culture; format: functional; details: Mycobacterium tuberculosis
[12] = THP-1 cell cytotoxicity, dose response, cytotoxicity control for non-replicating M. tuberculosis project (AID 489025); format: functional
[13] = biological target: T5, Heat shock factor protein 1 (Mus musculus, UniProt P38532); assay: decrease of HSF1-responsive luciferase luminescence – cell-based, NIH3T3, dose retest, confirmation (AID 2382); format: functional;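 note: NIH3T3 fibroblasts with HSF1-driven luciferase reporter stressed by proteasome inhibitor MG132; luminescence from HSF1-driven luciferase expression after 8 hours of MG132 stress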
T5 sequence (P38532 whole entry): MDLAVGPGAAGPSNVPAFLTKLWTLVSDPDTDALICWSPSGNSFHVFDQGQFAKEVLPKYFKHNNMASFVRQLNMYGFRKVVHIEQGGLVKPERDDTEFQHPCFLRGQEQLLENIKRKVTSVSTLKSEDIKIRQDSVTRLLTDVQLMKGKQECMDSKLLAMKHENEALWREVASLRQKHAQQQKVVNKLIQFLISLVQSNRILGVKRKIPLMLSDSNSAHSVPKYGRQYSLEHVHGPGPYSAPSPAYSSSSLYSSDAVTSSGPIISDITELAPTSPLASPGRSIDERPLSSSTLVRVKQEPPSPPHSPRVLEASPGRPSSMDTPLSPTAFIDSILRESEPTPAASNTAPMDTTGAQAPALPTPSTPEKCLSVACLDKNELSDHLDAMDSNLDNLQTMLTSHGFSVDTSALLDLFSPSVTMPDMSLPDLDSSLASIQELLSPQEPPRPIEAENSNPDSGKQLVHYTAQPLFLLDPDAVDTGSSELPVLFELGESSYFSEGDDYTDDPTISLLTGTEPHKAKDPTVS

SMILES: CN(C)c1ccc(C(=O)c2ccccc2C(=O)O)cc1[N+](=O)[O-]
- EC50 [1]: 102 µM (active)
- EC50 (BJ [2]): > 150 µM (not active)
- EC50 (BJ [3]): > 150 µM (not active)
- EC50 (BJ [4]): > 150 µM (not active)

SMILES: C[C@H](CO)N1C[C@H](C)[C@H](CN(C)Cc2ccc(Oc3ccccc3)cc2)Oc2c(NC(=O)c3cnccn3)cccc2C1=O
- AC50 [5]: 5.22 µM (active)

SMILES: CC(C)(C)C(=O)Nc1c2c(nn1-c1ccc(F)cc1)CSC2
- IC50 [6]: > 66 µM (inactive)
- IC50 [7]: > 66 µM (inactive)

SMILES: CN(CC1CCOCC1)C(=O)CC1C(=O)NCCN1Cc1ccc(Cl)c(F)c1 (configuration not stated)
- IC50 [8]: > 47.1 µM (inactive)
- EC50 [9]: > 53 µM (inactive)

SMILES: C[C@H]1CN([C@@H](C)CO)C(=O)Cc2cc(NC(=O)CCCCCC(=O)Nc3ccccc3N)ccc2O[C@@H]1CN(C)Cc1ccc(C(F)(F)F)cc1
- AC50 [5]: 5.01 µM (active)

SMILES: CCOC(=O)c1c(N)sc2c1CCS(=O)(=O)C2
- IC50 [6]: > 66 µM (inactive)
- IC50 [7]: > 66 µM (inactive)

SMILES: COc1ccc(NC(=O)CCCC2CCCCC2)cc1S(=O)(=O)N1CCCCC1
- IC50 [8]: > 47.1 µM (inactive)
- EC50 [9]: > 53 µM (inactive)

SMILES: CCN(c1ccccc1)S(=O)(=O)c1ccc(NC(=O)c2ccco2)cc1
- IC50 [8]: > 47.1 µM (inactive)
- EC50 [9]: > 53 µM (inactive)

SMILES: CCOC(=O)CSc1nc2c(c(=O)[nH]c(=O)n2C)n1C/C=C(/C)Cl
- IC50 [6]: > 66 µM (inactive)
- IC50 [7]: > 66 µM (inactive)

SMILES: COc1ccc(S(=O)(=O)N(C)C[C@@H]2OCCCC[C@@H](C)Oc3ccc(NC(=O)Nc4ccc(C(F)(F)F)cc4)cc3C(=O)N([C@H](C)CO)C[C@@H]2C)cc1
- AC50 [5]: 5.92 µM (active)

SMILES: C[C@@H]1CN([C@H](C)CO)C(=O)Cc2cc(NC(=O)C3CCCCC3)ccc2O[C@H]1CN(C)Cc1ccc(Oc2ccccc2)cc1
- AC50 [5]: 2.45 µM (active)

SMILES: CCOC(=O)C1C(C)=CC(=O)CC1c1ccco1 (configuration not stated)
- IC50 [8]: > 47.1 µM (inactive)
- EC50 [9]: > 53 µM (inactive)

SMILES: C/C(=N\Nc1cc(C)nc(-c2ccccc2)n1)c1cccc([N+](=O)[O-])c1
- IC50 [8]: > 47.1 µM (inactive)
- EC50 [9]: > 53 µM (inactive)

SMILES: COc1ccc(C(=O)NC(=S)Nc2cccc(NC(=O)c3ccco3)c2)cc1[N+](=O)[O-]
- IC50 [6]: > 66 µM (inactive)
- IC50 [7]: > 66 µM (inactive)

SMILES: Cc1ccsc1C(=O)N/N=C/c1ccc2c(c1)OCO2
- EC50 [1]: 9.95 µM (inconclusive)
- EC50 (BJ [2]): > 150 µM (inconclusive)
- EC50 (BJ [3]): 11.6 µM (inconclusive)
- EC50 (BJ [4]): 15.4 µM (active)

SMILES: C[C@@H]1CN([C@H](C)CO)C(=O)c2cccc(NC(=O)Nc3ccc(C(F)(F)F)cc3)c2O[C@H]1CN(C)C(=O)Nc1ccc2c(c1)OCO2
- AC50 [5]: 6.12 µM (active)

SMILES: CC1=NN(c2ccccc2)C(=O)/C1=C/c1cccs1
- EC50 (Protein RecA): 4.53 µM (active)
- IC50 (Genome polyprotein): 46.8 µM (active)
- AC50 [10]: 4.26 µM (active)

SMILES: C[C@H](CO)N1C[C@H](C)[C@H](CN(C)Cc2ccc(C(F)(F)F)cc2)Oc2ccc(NC(=O)Nc3cccc4ccccc34)cc2C1=O
- AC50 [5]: 2.81 µM (active)

SMILES: COC(CNc1ncnc2c1cnn2C)OC
- IC50 [8]: > 47.1 µM (inactive)
- EC50 [9]: > 53 µM (inactive)

SMILES: CC(SC1=NCCS1)C(=O)Nc1nnc(-c2ccc(Br)cc2)s1 (configuration not stated)
- IC50 [8]: > 47.1 µM (inactive)
- EC50 [9]: > 53 µM (inactive)

SMILES: C[C@@H]1CCCCO[C@@H](CN(C)C(=O)Nc2ccc(C(F)(F)F)cc2)[C@@H](C)CN([C@H](C)CO)C(=O)c2cc(NS(=O)(=O)c3ccc(F)cc3)ccc2O1
- AC50 [5]: 1.85 µM (active)

SMILES: O=C1CC(SC(=S)C2CCCC2=O)C(=O)N1 (configuration not stated)
- IC50 [6]: > 66 µM (inactive)
- IC50 (Genome polyprotein): 45.4 µM (active)
- IC50 [7]: > 66 µM (inactive)

SMILES: CCCn1c(O)c(N=NC(=O)c2ccco2)c2ccccc21
- CC50 [11]: > 40 µM (active)
- CC50 [12]: > 40 µM (active)
- EC50 [13]: > 195 µM (not active)

SMILES: COc1ccc(C2=NN=C(c3ccco3)Nc3ccc(F)cc32)cc1
- IC50 [8]: > 47.1 µM (inactive)
- EC50 [9]: > 53 µM (inactive)

SMILES: O=C(CSc1nncc2ccccc12)N1CCOCC1
- IC50 [6]: > 66 µM (inactive)
- IC50 [7]: > 66 µM (inactive)

SMILES: Cc1n[nH]c2c(=S)[nH]c(=O)[nH]c12
- IC50 [6]: > 66 µM (inactive)
- IC50 [7]: > 66 µM (inactive)
